Read-outs that look alike come from different tables or passages of the source.
Experiments:
[1] = biological target: T1, NA from influenza A(H3N2) virus isolates (Influenza A virus, UniProt V5P6L4); format: biochemical
[2] = biological target: NA from influenza B virus isolates (Influenza B virus, UniProt A0A1S5RAG6); format: biochemical
[3] = biological target: T2, NA from influenza A(H1N1) virus isolates (Influenza A virus, UniProt C0LLZ0); conditions: cited from earlier work
[4] = system: NA from influenza A(H1N1)pdm09 virus isolates; conditions: cited from earlier work; for IC50: read-out: IC50, susceptible reference strain
[5] = biological target: T2, NA from influenza A(H1N1) virus isolates; format: biochemical
[6] = biological target: NA from influenza A(H1N1)pdm09 virus isolates (Influenza A virus, UniProt C7FH46); format: biochemical
[7] = biological target: T1, NA from influenza A(H3N2) virus isolates; conditions: cited from earlier work
[8] = read-out: IC50, susceptible reference strain

SMILES	Susceptible [1]	IC50 ([1]; read-out: IC50 Median (range)) [nM]	IC50 ([1]; read-out: IC50 Statistical cutoff (X 0.75 + 3IQR)) [nM]	IC50 ([1]; read-out: IC50 X 0.75 (75th percentile)) [nM]	Susceptible [2]	IC50 [3, 8] [nM]	IC50 [4] [nM]	Susceptible [5]	outlier virus isolates [5]	share of virus isolates with markedly increased IC50 [5] [%]	Susceptible [6]	IC50 [7, 8] [nM]	susceptibility phenotype of reference virus [3]	susceptibility phenotype of reference virus [4]	susceptibility phenotype of reference virus [7]
CCOC(=O)C1=C[C@@H](OC(CC)CC)[C@H](NC(C)=O)[C@@H](N)C1 [oseltamivir]	susceptible and Yes	0.05	0.15	0.06	susceptible and Yes	0.13	0.1	susceptible and Yes and No	2/4	97.9	susceptible and Yes	0.21	–	–	–
CC(=O)N[C@H]1[C@H]([C@H](O)[C@H](O)CO)OC(C(=O)O)=C[C@@H]1N=C(N)N [zanamivir]	susceptible and Yes	–	–	–	–	–	0.42	susceptible and Yes	3/4	–	susceptible and Yes	–	susceptible	susceptible	susceptible

From paper PMC6304311 (Influenza and Other Respiratory Viruses, 2018)
